# In patent US7811609B2, “Use of metal compounds to treat gastrointestinal infections” (priority 2000, dated 2010):
# Where “and” joins values, the source holds several entries; their conditions need not be identical. Equal entries are not always repeated. Where two headings read alike, the source gives them in different places.
# Legend:
# Helicobacter pylori [1] = test: MIC against Helicobacter pylori by two fold serial dilution in growth medium; format: cell-based
# Protocol: (§1) Solutions of metal salts were prepared by dilution of the metal salt, optionally together with the ligand, in ultra-high-purity water. The pH values were adjusted to 7 with concentrated sodium hydroxide. The solutions were γ irradiated for 20 to 30 minutes for sterilisation, and then diluted ten fold in the bacterial growth medium to be used.
# (§2) A gradient of concentration was obtained by two fold serial dilutions of the medium. The concentrations of metals were analysed by inductively coupled plasma spectrometry. Each dilution was inoculated with the different bacteria to be tested, by multi-point inoculating on the agar media, or suspending in the broth media.
# The presence or absence of bacterial growth was reported within the concentration gradient and the minimum concentration of complex in the medium that inhibits totally the bacterial growth (MIC) was determined. The growth on an agar plate was detected by the presence of colonies, and by turbidity in the broth media. The bacteria were identified by the Gram morphology test. Helicobacter pylori growth was also confirmed by biochemical test on the catalase, urease and oxidase activity.
# Staphylococcus aureus = test: MIC against Staphylococcus aureus; format: cell-based
# [2] = tested on: Coagulase negative staphylococcus; test: MIC against coagulase negative staphylococcus; format: cell-based; conditions: Mueller-Hinton agar with 2% horse serum and isosensitest agar with 5% horse blood; several strains
# Enterococcus faecalis = test: MIC against Enterococcus faecalis; format: cell-based
# Enterococcus faecium = test: MIC against Enterococcus faecium; format: cell-based; conditions: Mueller-Hinton agar with 2% horse serum and isosensitest agar with 5% horse blood; several strains
# Pseudomonas aeruginosa [3] = test: MIC against Pseudomonas aeruginosa; format: cell-based
# Klebsiella = test: MIC against Klebsiella; format: cell-based
# Echerichia coli = test: MIC against Echerichia coli; format: cell-based
# other bacteria = test: MIC against other bacteria; format: cell-based; conditions: 32 mg/l = estimate limit between active and non-active metals
# Helicobacter pylori [4] = test: Inhibition of Helicobacter pylori growth over time in the STH medium (FIG. 1, cfu/ml against time); format: cell-based; conditions: cobalt 2.00 ppm
# Source text: FIG. 1 is a graph showing the inhibition of H. pylori growth by cobalt (cobaltous chloride) in the STH medium.
# I50=inhibition of 50% of the Helicobacter pylori inoculated by cobaltous chloride. Concentration of cobalt in the medium was 2.00 ppm.
# [5] = Tolerance study in patients with H. pylori infection; format: in vivo, human; conditions: six patients; 20 mg/day cobalt (10 mg b.d) for two weeks; oral capsules or solution
# Protocol: In a tolerance study, six patients with H. pylori infection ingested a low dose of 20 mg/day cobalt, as cobalt chloride (10 mg b.d), for two weeks. […] In one patient the cobalt was taken also with a proton pump inhibitor (Lansoprazole) while the remaining 5 took cobalt alone as capsules (4 patients) or a solution (1 patient). 3 of these patients had gastritis and/or duodenitis with a duodenal ulcer also in one of these three. The other 3 had oesophagitis and/or normal stomach and duodenum.
# Helicobacter pylori [6] = tested on: Helicobacter pylori
# Protocol: as §1, §2
# (§3) Media were incubated for Helicobacter pylori in a microaerobic atmosphere (gas jar containing a CampyGen® pack, 5% O2-10% CO2-85% N2 by volume) with constant shaking (orbital shaker, 140 rpm) at 37° C. for five days.
# (§4) The presence or absence of bacterial growth was reported within the concentration gradient and the minimum concentration of complex in the medium that inhibits totally the bacterial growth (MIC) was determined. The growth on an agar plate was detected by the presence of colonies, and by turbidity in the broth media. […] Helicobacter pylori growth was also confirmed by biochemical test on the catalase, urease and oxidase activity.
# E. coli = conditions: extrapolated from survival rates; protein broth then phosphate-buffered saline; Zhao et al 1998; cited from earlier work
# Pseudomonas aeruginosa [7] = conditions: extrapolated from survival rates; protein broth then phosphate-buffered saline; Zhao et al 1998; cited from earlier work
# [8] = tested on: Staphylococcus (aureus or Oxford Staph); conditions: extrapolated from survival rates; protein broth then phosphate-buffered saline; Zhao et al 1998; cited from earlier work
# H. pylori = conditions: cited from earlier work
# Helicobacter pylori [9] = test: microbe, parasite or virus in culture; conditions: read-out: MIC of amoxycillin (no cobalt)
# Protocol: as §1, §2, §3, §4
# [10] = Mueller-Hinton agar with 2% horse serum and isosensitest agar with 5% horse blood, several strains
smiles,measurement,setting,value
"[Cl-].[Cl-].[Co+2] [Co chloride, cobalt (II) chloride]",Average Selectivity Ratio,Helicobacter pylori [1]; (Sum of MIC values against all bacteria except H. pylori ÷ No. of MIC values) ÷ MIC value for H. pylori,434
same,MIC,"Helicobacter pylori [1]; STH broth, NCTC 11637 and seven clinical isolates",0.03 to 0.6 µg/mL
same,"MIC (mg/l), median","Helicobacter pylori [1]; STH broth, NCTC 11637 and seven clinical isolates, median",0.06 mg/L
same,"Mean ratio pH 4:pH 7, first value",Helicobacter pylori [1]; Strain 1 (Chloride: against first pH 7 value),0.5
same,"MIC, Strain 1 (pH 4)","Helicobacter pylori [1]; Strain 1, pH 4",0.015
same,"MIC, Strain 1 (pH 7)","Helicobacter pylori [1]; Strain 1, pH 7 (first value where two are given)",0.03
same,"MIC, Strain 1 (pH 7), second value","Helicobacter pylori [1]; Strain 1, pH 7, second of x/y",0.125
same,"Mean ratio pH 4:pH 7, second value",Helicobacter pylori [1]; Strain 2 (Chloride: Strain 1 against second pH 7 value),0.12
same,"MIC, H. pylori, range in brackets",Helicobacter pylori [1]; Table 4,(<0.03-0.125)
same,"MIC, H. pylori","Helicobacter pylori [1]; Table 4, main value",0.06 µg/mL
same,activity against H. pylori at pH 4 relative to pH 7,Helicobacter pylori [1]; Table 5,about 10 fold
same,kind of action against H. pylori,Helicobacter pylori [1]; found by measuring the MIC,"not only bacteriostatic (i.e. inhibitory of growth), but also bactericidal"
same,minimum inhibitory concentration (MIC),"Helicobacter pylori [1]; in vitro, Co^2+ as cobalt chloride",0.06 µg/mL
same,"MIC, pH 4-7",Helicobacter pylori [1]; pH 4-7: pH of the media changes during the experiment from acidic start,0.03-0.4 mg/l
same,"MIC, pH 7",Helicobacter pylori [1]; pH 7,0.06-0.4 mg/l
same,activity against the H. pylori strain deprived of its urease enzyme,Helicobacter pylori [1]; urease-deprived strain,active
same,MIC,Staphylococcus aureus; [10],>32 µg/mL
same,"MIC, Staphylococcus (aureus or Oxford Staph)",Staphylococcus aureus; Table 4,> 32 µg/mL
same,MIC,[2],>32 µg/mL
same,MIC,Enterococcus faecalis; [10],>32 µg/mL
same,"MIC, Ent faecalis",Enterococcus faecalis; Table 4,> 32 µg/mL
same,MIC,Enterococcus faecium,>32 µg/mL
same,MIC,Pseudomonas aeruginosa [3]; [10],>32 µg/mL
same,"MIC, Pseudomonas aeruginosa",Pseudomonas aeruginosa [3]; Table 4,> 32 µg/mL
same,MIC,Klebsiella; [10],>32 µg/mL
same,"MIC, Klebsiella",Klebsiella; Table 4,> 32 µg/mL
same,MIC,Echerichia coli; [10],>32 µg/mL
same,"MIC, E. coli",Echerichia coli; Table 4,> 32 µg/mL
same,activity (MIC) against other bacteria,other bacteria,> 32 µg/mL
same,time to I50 (inhibition of 50% of the Helicobacter pylori inoculated),Helicobacter pylori [4],5 h
same,time to total inhibition,Helicobacter pylori [4],8 h
same,adverse effects,[5],no reported adverse effects
same,growth in the medium,"Helicobacter pylori [6]; Co 0.0015 mg/l, Ax 0 mg/l",+
same,growth in the medium,"Helicobacter pylori [6]; Co 0.004 mg/l, Ax 0 mg/l",+
same,growth in the medium,"Helicobacter pylori [6]; Co 0.008 mg/l, Ax 0 mg/l",+
same,growth in the medium,"Helicobacter pylori [6]; Co 0.030 mg/l, Ax 0 mg/l",−
same,growth in the medium,"Helicobacter pylori [6]; Co 0.060 mg/l, Ax 0 mg/l",−
same,growth in the medium,"Helicobacter pylori [6]; Co 0.120 mg/l, Ax 0 mg/l",−
same,MIC of cobalt (no amoxycillin),Helicobacter pylori [6]; no amoxycillin,MIC of cobalt (no amoxycillin): 0.030 mg/l
same,"MIC, E. coli (footnote a)",E. coli,22.97^a
same,"MIC, Pseudomonas aeruginosa (footnote a)",Pseudomonas aeruginosa [7],2.3^a
same,"MIC, Staphylococcus (aureus or Oxford Staph) (footnote a)",[8],22.97^a
"CC1(C)S[C@@H]2[C@H](NC(=O)[C@H](N)c3ccc(O)cc3)C(=O)N2[C@H]1C(=O)O [amoxycillin, reference compound]",growth in the medium,"Helicobacter pylori [6]; Co 0 mg/l, Ax 0.002 mg/l",+
same,growth in the medium,"Helicobacter pylori [6]; Co 0 mg/l, Ax 0.004 mg/l",+
same,growth in the medium,"Helicobacter pylori [6]; Co 0 mg/l, Ax 0.008 mg/l",+
same,growth in the medium,"Helicobacter pylori [6]; Co 0 mg/l, Ax 0.015 mg/l",+
same,growth in the medium,"Helicobacter pylori [6]; Co 0 mg/l, Ax 0.03 mg/l",+
same,growth in the medium,"Helicobacter pylori [6]; Co 0 mg/l, Ax 0.06 mg/l",−
same,"MIC, strains that repeatedly showed higher MIC",H. pylori; H. pylori strains lacking one penicillin-binding protein,0.25 µg/mL and 0.5 µg/mL
same,"MIC, usual","H. pylori; H. pylori, usual strains",≤ 0.03 µg/mL
same,MIC,Helicobacter pylori [9],0.06 µg/mL
